Test system: SARS-CoV-2 (WT and OTS virus) in VeroET cells
Type: cell-based

Compound	number of infectious virus particles in a TCID50 virus assay
O=c1[nH]cc(F)c(=O)[nH]1 [5-Fluorouracil]	reduces
CC(C)C(=O)OC[C@H]1O[C@@H](n2ccc(NO)nc2=O)[C@H](O)[C@@H]1O [Malnupiravir]	reduces
